This is an account of results in patent publication US7915272B2 (priority 2006, dated 2011).

For orientation: IC50 means the point on the concentration scale where inhibition reaches its midpoint.

Counter-ions that a name gives are not always drawn.

The target of the assay is α7-subtype of nicotinic receptors (Rattus norvegicus, UniProt Q05941). As to the kind of experiment: biochemical. The class given is binding.
Chain of α7-subtype of nicotinic receptors (Q05941 23-502): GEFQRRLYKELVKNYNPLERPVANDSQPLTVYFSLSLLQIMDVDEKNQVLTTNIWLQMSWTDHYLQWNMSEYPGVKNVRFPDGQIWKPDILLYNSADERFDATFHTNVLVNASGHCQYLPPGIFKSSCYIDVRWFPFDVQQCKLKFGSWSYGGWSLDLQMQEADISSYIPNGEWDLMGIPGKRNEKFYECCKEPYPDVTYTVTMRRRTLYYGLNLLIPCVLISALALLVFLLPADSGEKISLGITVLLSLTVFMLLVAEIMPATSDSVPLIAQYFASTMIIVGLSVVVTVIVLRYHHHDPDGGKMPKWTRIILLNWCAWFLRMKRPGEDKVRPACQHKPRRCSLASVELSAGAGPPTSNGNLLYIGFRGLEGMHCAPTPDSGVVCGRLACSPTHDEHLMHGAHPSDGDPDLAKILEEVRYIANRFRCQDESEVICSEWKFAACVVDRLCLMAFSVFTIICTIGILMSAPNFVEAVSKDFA

In the case of `O=C(Nc1cnc(N2CCN3CCC2CC3)nc1)c1ccccc1F` [Compound 1, N-[2-(1,4-Diaza-bicyclo[3.2.2]non-4-yl)-pyrimidin-5-yl]-2-fluoro-benzamide hydrochloric acid salt], the IC50 is under 100 nM.
